Test results as given in patent US20080220416A1, “Compositions for Inhibiting Cell Growth and Inducing Apoptosis in Cancer Cells and Methods of Use Thereof” (THE BOARD OF TRUSTEES OF THE UNIVERSITY OF ILLINOI, priority 2004, published 2008).
Square brackets hold non-standard residues; d marks the D form. Peptide text beside a SMILES is read from it. * marks the point of attachment. Nle = CCCC[C@H](N)C(=O)O; Cbz = O=C(OCc1ccccc1)*

What was measured:
[1] = system: CaSki human cervical cancer cells; test: Apoptosis of CaSki cells (Annexin V flow cytometry, caspase 3 Western blot); type: cell-based
Experimental: For the apoptosis measurement assay, the transformed CaSki human cervical cancer cells were treated with DMSO, or 25 μM, 50 μM or 100 μM cisplatin for 24 hours. After cisplatin treatment, the cells were collected and stained with fluorescein-conjugated annexin V and propidium iodide, using the APO TARGET Annexin-V FITC Apoptosis Kit (BioSource International, Inc., Camarillo, Calif.) according to the manufacturer's instructions. After the staining, the cells were sorted by flow cytometry with a FACScan instrument (Becton-Dickinson), Annexin-V positive stained cells were counted as apoptotic cells. Cells that were propidium iodide positive but annexin V negative were not counted as apoptotic cells.
To determine whether z-Leu-Leu-Nle-CHO induces cell death via apoptosis, CaSki cells were treated with various concentrations of z-Leu-Leu-Nle-CHO for 18 h and then either stained with Annexin-V-FITC as described above, or subject to Western blot analysis using antibody to both the pro-enzyme and active form of caspase-3 (Santa Cruz Biotechnology, Santa Cruz, Calif.) as described above.

[2] = system: MDA-MB231 breast cancer cells; test: Cytotoxicity and growth assay in MDA-MB231 breast cancer cells (SRB, TCA-precipitated protein); type: cell-based, human
Experimental: An invasive, estrogen-independent breast cancer cell line that spontaneously expresses high levels of Notch-1 and -4, MDA-MB231, and normal human breast cells were used to investigate whether inhibition of Notch activation or expression affects the biological behavior of breast cancer cells. Human Mammary Epithelial Cells (HMEC) were purchased from Clonetics and cultured in mammary epithelial cell basal medium (MEBM) supplemented with 52 μg/ml Bovine Pituitary Extract […], […] human recombinant Epidermal Growth Factor (hEGF), 5 μg/ml insulin, 0.5 μg/ml Hydrocortisone, 50 μg/ml Gentamicin and 50 μg/ml Amphotericin-B. MDA-MB231 (ATCC, Rockville, Md.) were cultured in DMEM medium with 10% FBS. Notch expression in HMEC and MDA-MB231 cells was silenced using highly specific RNAi. Double-stranded synthetic 21-mer RNA oligonucleotides (siRNAs) were purchased from Dharmacon (Lafayette, Colo.). […] Sequence specificity was determined by BLAST searches which determined the uniqueness of the sequences. Transfection of siRNAs was performed using Oligofectamine (Invitrogen) as recommended by the siRNA manufacturer (Dharmacon). Transfection efficiency was optimized and followed on parallel wells using DNA double stranded oligos of identical sequence to the siRNAs, labeled with biotin on one strand. Transfected cells were identified by Streptavidin-horseradish peroxidase staining (Vectastain) and counted. Transfection efficiencies around 80% were routinely obtained.
Cytotoxicity and growth of transfected cells were estimated by a standard assay used for cancer drug screening, through the total amount of TCA-precipitated cell proteins after drug treatment (Likhitwitayawuid, K et al., 1993, J Nat Prod 56:30-38): 200 μl of cell suspension (10^5 cells/ml) were added to each well in a 96-well plate. After incubation at, 37° C., in 5% CO2 (30 minutes to 72 hours depending on the time course chosen), 50 μl 50% trichloroacetic acid was added to each well. After incubation at 4° C. for 1 hour, precipitates were washed with water 4-5 times and air dried overnight. One hundred μl of SRB solution (0.4% sulforhodamine B in 1% acetic acid, filtered before use) was added to each well for 30 minutes. Wells were washed with 1% acetic acid 4-5 times and air dried. Two hundred μl 10 mM Tris base was added to each well. Plates were shaken for 5-10 minutes and OD at 490 nm (OD490) was recorded via ELISA reader. To assay matrix invasion, 300 μl of cell suspension (10^6 cells/mL in serum-free medium) were added to invasion inserts (BioCoat Matrigel Invasion Chambers, Becton Dickinson, Bedford, Mass.) and incubated for 22 hours at 37° C., 5% CO2. […] After removal of the non-invading cells from the interior of the inserts, stained invading cells were lysed in 10% acetic acid and OD595 was determined. […]

Compound	effect on cisplatin-induced apoptosis ([1]; cisplatin 25, 50 or 100 μM for 24 hours)	proliferation ([2]; MDA-MB231, siRNA transfection)	caspase 3 activation ([1]; 18 h)	mode of cell death (Annexin V flow cytometry) ([1]; 18 h)	IC50 ([2]; Homo sapiens, MDA-MB-231, MDA-MB231 (p53-mutant, ERα-negative), 48 h, read-out: IC50, cell growth inhibition) [nM]
5′-AAGTGTCTGAGGCCAGCAAGA-3′ [Notch-1 siRNA]	significantly enhances cisplatin-induced apoptosis	inhibits proliferation of MDA-MB231 breast cancer cells	–	–	–
CCCC[C@@H](C=O)NC(=O)[C@H](CC(C)C)NC(=O)[C@H](CC(C)C)NC(=O)OCc1ccccc1 [z-Leu-Leu-Nle-CHO, N-benzyloxycarbonyl-leucyl-leucyl-norleucinal] (Cbz-Leu-Leu-[Nle]-aldehyde)	–	–	dose-dependent caspase 3 activation	primarily apoptotic	1300
